Experiments:
Type in all cases: in vivo
female BALB/c mouse [1] = experiment: MC-903 induced atopic dermatitis model, prophylactic (Example 12); details: for immune cell infiltration: histopathology, back skin; for IL-31 expression: itch marker
Procedure: Experimental details: Preclinical animal model of atopic dermatitis was developed by MC-903, a vitamin-D analogue. In the current study, the test item Compound 2 was screened to evaluate its efficacy in MC-903 induced AD model. 2 nmol of MC-903 was topically applied to 8-10 weeks old female BALB/c mouse from G2-G7 group at a volume of 50 μl/mouse on back skin on every alternate day for 14 days to induced disease. For the G1 group, (Normal+ethanol control) the same volume of ethanol that was used to solubilize MC-903 was applied. Clobetasol (0.05%, 20 mg) was applied topically once a day to G3 group animals. Compound 2 was administered twice a day to respective treatment groups (G4-G7) for 14 days. On the day of MC-903 administration, test compounds were dosed one hour prior to MC-903 insult. Clinical scores to assess the disease intensity were measured from visual examination for erythema, scaling and back skin thickness using dial caliper. All the scores were carried by blinded observers to treatment groups. Cumulative dermatitis severity scores were calculated by adding up the individual scores of erythema, scaling & thickness. On day-14 of the study, all animals were terminally bled under mild anesthesia followed by humane sacrifice and back skin tissue was dissected. Required skin tissue samples were collected in fixative and part of the tissue was flash-frozen in liquid nitrogen and stored at −80 °C. Collected tissue samples were processed and used for biomarker analysis using gene and protein expression analysis by qPCR & ELISA, pharmacokinetic analysis by LC-MS and histopathology studies.

female BALB/c mouse [2] = experiment: MC-903 induced atopic dermatitis model, therapeutic mode, low doses (Example 16); details: p.o. twice a day; for dermatitis severity scores: 0.01 to 10 mg/kg, vs MC-903 vehicle control
Procedure: (§1) Experimental details: Preclinical animal model of atopic dermatitis was developed by MC-903, a vitamin-D analogue. In the current study, the test item Compound 2 was screened in therapeutic mode, to evaluate its efficacy in MC-903 induced AD model. 2 nmol of MC-903 was topically applied to 8-10 weeks old female BALB/c mouse from G2-G8 group at a volume of 50 μl/mouse on back skin on every alternate day for 14 days to induced disease. For the G1 group, (Normal+ethanol control) the same volume of ethanol that was used to solubilize MC-903 was applied. Clobetasol (0.05%, 15 mg/mouse) was applied topically once a day to G3 group animals. Compound 2 was administered per oral twice a day at 0.01, 0.1, 1, 3 & 10 mg/kg to respective treatment groups (G4-G8) for 14 days. On the day of MC-903 administration, test compounds were dosed one hour prior to MC-903 insult. Clinical scores to assess the disease intensity were measured from visual examination for erythema, scaling and back skin thickness using dial caliper. All the scores were carried by blinded observers to treatment groups. Disease severity was assessed by dermatitis severity scores.

female BALB/c mouse [3] = experiment: MC-903 induced atopic dermatitis model, therapeutic mode, vs oral JAK-i (Example 15); details: twice a day; for dermatitis severity scores: vs MC-903 vehicle control
Procedure: as §1, with “group animals, Upadacitinib” for “group animals. Compound 2”, “was dosed” for “was administered per”, “at 2, 6” for “at 0.01, 0.1, 1, 3”, “& 20” for “& 10”, “mg/kg to G4, G5 & G6 respectively. Compound 2 was administered twice a day” for “mg/kg”, “groups (G7-G10)” for “groups (G4-G8)”

[4] = twice a day, 14 days, vs MC-903 vehicle control

In the case of C[C@@]12CCC(=O)N[C@@](C)(CO)[C@H]1CC[C@@]1(C)O[C@H](C3=CCOC3=O)C[C@@H]21 [Compound 2, (2S,3aR,5aS,6R,10aR,10bS)-6-(hydroxymethyl)-3a,6,10a-trimethyl-2-(2-oxo-2,5-dihydrofuran-3-yl) dodecahydro-8H-benzofuro[5,4-c]azepin-8-one], the neutrophil infiltration (female BALB/c mouse [1]; FIG. 12C) is reported as “robustly reduces”, the “early barrier alarmins in skin” value (female BALB/c mouse [1]; FIG. 12G) is reported as “reduces early barrier alarmins” and the tissue cytokine expression (female BALB/c mouse [1]; FIG. 12H) is reported as “impacts tissue cytokine expression”. The “improvement of MC-903-induced atopic dermatitis” value (female BALB/c mouse [1]; compared with high-potency topical corticosteroids) was “comparable to high-potency topical corticosteroids”, the immune cell infiltration (female BALB/c mouse [1]) was “significantly reduced” and the immune cell infiltration (female BALB/c mouse [1]; listed as compound 2) was “reduced dose-dependent immune cell infiltration”. For the same molecule, the “histopathological changes and final histopathology scores” value (female BALB/c mouse [1]; hyperkeratosis, parakeratosis, lengthening and clubbing of rete ridges, vs MC-903 vehicle control) was “significantly reduced”, the IL-31 expression (female BALB/c mouse [1]; prophylactic, back skin tissue) was “significantly reduced” and the IL-31 expression (female BALB/c mouse [1]; prophylactic, back skin tissue, listed as compound 2) was “decreases IL-31 expression”. For the same molecule, the NGAL levels (female BALB/c mouse [1]; neutrophil marker, back skin tissue) was “significantly reduced”, the NGAL levels (female BALB/c mouse [1]; neutrophil marker, back skin tissue, listed as compound 2) was “significantly reduces NGAL levels” and the Lipocalin-2 expression (female BALB/c mouse [1]; neutrophil marker, prophylactic, back skin tissue) was “significantly reduced”. The IL-4 expression (female BALB/c mouse [1]; prophylactic, back skin tissue) was “significantly reduced”, the IL-13 expression (female BALB/c mouse [1]; prophylactic, back skin tissue) was “significantly reduced” and the Krt6a expression (female BALB/c mouse [1]; prophylactic, back skin tissue) was “significantly reduced”. For the same molecule, the “Tissue TSLP expression” value (female BALB/c mouse [1]; prophylactic, back skin tissue) was “significantly reduced”, the dermatitis severity scores (female BALB/c mouse [1]; [4]) was “dose dependent decrease” and the epidermal thickness (female BALB/c mouse [1]; [4]) was “significantly reduced”. The epidermal thickness (female BALB/c mouse [1]; twice a day, 14 days, vs MC-903 vehicle control, listed as compound 2) was “robustly reduces epidermal thickness”, the minimal effective dose (female BALB/c mouse [2]; Mus musculus, po, 336 h, doses 0.01, 0.1, 1, 3, 10 mg/kg, read-out: lowest active dose (dermatitis severity scores)) was 0.1 mg/kg and the dermatitis severity scores (female BALB/c mouse [2]) was “significant dose dependent decrease”. For the same molecule, the dermatitis severity scores (female BALB/c mouse [2]; listed as compound 2) was “significantly reduces”, the “efficacy compared with oral JAK-i” value (female BALB/c mouse [3]) was “Efficacy On-Par with Oral JAK-i” and the dermatitis severity scores (female BALB/c mouse [3]) was “significant dose dependent decrease in dermatitis severity scores on-par with oral JAK-i”. For the same molecule, the dermatitis severity scores (female BALB/c mouse [3]; listed as compound 2) was “significantly reduces dermatitis severity scores on-par with oral JAK-i”.

— US20260365662A1, “ISOANDROGRAPHOLIDE ANALOGS AND METHOD FOR TREATMENT USING THE SAME” (Enveda Therapeutics, Inc., priority 2023, published 2026)
